The values below come from ChEMBL document CHEMBL4842346, “Improving the metabolic stability of antifungal compounds based on a scaffold hopping strategy: Design, synthesis, and structure-activity relationship studies of dihydrooxazole derivatives” (Eur J Med Chem, 2021).

Data set [1] has as its system Candida albicans. In words: Antifungal activity against Candida albicans SC5314 assessed as inhibition of fungal growth by NCCLS protocol based method. Format: functional.
For data set [2], the system named is Candida albicans. In words: Antifungal activity against Candida albicans CPCC400523 assessed as inhibition of fungal growth by NCCLS protocol based method. Format: functional.
Data set [3] deals with Cryptococcus neoformans. Briefly: Antifungal activity against Cryptococcus neoformans CGMCC2.3161 assessed as inhibition of fungal growth by NCCLS protocol based method. It counts as functional.
The test system of data set [4] is Aspergillus fumigatus. In words: Antifungal activity against Aspergillus fumigatus CGMCC3.7795 assessed as inhibition of fungal growth by NCCLS protocol based method. It counts as functional.
Data set [5] can be described thus: Metabolic stability in human liver microsomes assessed as half life at 100 uM in the presence of NADPH measured upto 60 mins by LC-MS/MS analysis. Format: ADME, Microsome.
Data set [6] deals with T1, Lanosterol 14-alpha demethylase (Candida albicans (strain SC5314 / ATCC MYA-2876) (Yeast), UniProt P10613). Briefly: Inhibition of Candida albicans CYP51 assessed as lanosterol level at 0.015 ug/ml measured after 18 hrs by GC-MS analysis relative to control. More on the design: scale not given: the % may be the effect or the level left. The following applies: at 0.015 µg/mL.

For data set [7], the system named is Candida tropicalis. Briefly: Antifungal activity against Candida tropicalis GIM2.183 assessed as inhibition of fungal growth by NCCLS protocol based method. Format: functional.
In data set [8] the test system is Candida albicans. In words: Antifungal activity against Candida albicans GIM2.194 assessed as inhibition of fungal growth by NCCLS protocol based method. It counts as functional.
Data set [9] concerns Pichia kudriavzevii. Briefly: Antifungal activity against Candida krusei GIM2.1 assessed as inhibition of fungal growth by NCCLS protocol based method. It counts as functional.
In data set [10] the test system is Candida parapsilosis. Briefly: Antifungal activity against Candida parapsilosis GIM2.190 assessed as inhibition of fungal growth by NCCLS protocol based method. It counts as functional. Conditions: Lodderomyces parapsilosis.
Data set [11] concerns Candida albicans. Briefly: Antifungal activity against fluconazole resistant Candida albicans CaR assessed as inhibition of fungal growth by NCCLS protocol based method. Format: functional.
In data set [12] the test system is Candida albicans. Briefly: Antifungal activity against fluconazole and itraconazole resistant Candida albicans 17# assessed as inhibition of fungal growth by NCCLS protocol based method. Format: functional.
Data set [13] in a line: Intrinsic microsomal clearance in human liver microsomes at 100 uM in the presence of NADPH measured up to 60 mins by LC-MS/MS analysis. Format: ADME, Microsome. The following applies: read-out: CLH. In general terms: Liver microsomes are a subcellular fraction often used to study metabolism.
Data set [14] is described as follows: Metabolic stability in human liver microsomes assessed as compound remaining at 100 uM measured after 60 mins in the presence of NADPH by LC-MS/MS analysis. The following applies: read-out: Stabilty. Format: ADME, Microsome.
Data set [15] in a line: Metabolic stability in human liver microsomes assessed as compound remaining at 100 uM measured after 60 mins in the absence of NADPH by LC-MS/MS analysis. Format: ADME, Microsome. Conditions: read-out: Stabilty.
Data set [16] can be described thus: Metabolic stability in human plasma assessed as parent compound remaining at 100 uM measured after 60 mins by LC-MS/MS analysis. It counts as ADME, cell-free. The following applies: read-out: Stabilty.
Data set [17] in a line: Metabolic stability in human plasma assessed as parent compound remaining at 100 uM measured after 120 mins by LC-MS/MS analysis. It counts as ADME, cell-free. The following applies: 2 h.
Data set [18] can be described thus: Metabolic stability in human plasma assessed as half life at 100 uM measured after 60 mins by LC-MS/MS analysis. It counts as ADME, cell-free.
For data set [19], the target named is T2, Cytochrome P450 1A2 (Homo sapiens, UniProt P05177).
T2 sequence (P05177 whole entry): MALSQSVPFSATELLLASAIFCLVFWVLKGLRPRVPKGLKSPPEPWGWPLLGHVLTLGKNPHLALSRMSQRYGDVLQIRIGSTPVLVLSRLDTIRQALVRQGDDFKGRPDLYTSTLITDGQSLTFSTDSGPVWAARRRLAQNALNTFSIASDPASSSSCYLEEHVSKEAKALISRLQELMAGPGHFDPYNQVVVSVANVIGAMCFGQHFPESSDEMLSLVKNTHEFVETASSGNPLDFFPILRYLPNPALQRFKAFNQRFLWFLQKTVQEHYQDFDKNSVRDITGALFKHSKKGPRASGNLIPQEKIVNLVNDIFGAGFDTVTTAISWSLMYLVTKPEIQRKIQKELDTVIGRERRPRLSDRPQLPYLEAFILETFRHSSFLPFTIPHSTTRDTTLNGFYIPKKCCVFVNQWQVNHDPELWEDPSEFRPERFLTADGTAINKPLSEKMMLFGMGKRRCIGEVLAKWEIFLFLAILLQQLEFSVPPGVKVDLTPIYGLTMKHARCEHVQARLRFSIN
Briefly: Inhibition of CYP1A2 in human liver microsome incubated for 10 mins in the presence of NADPH by LC-MS/MS analysis. It counts as ADME, microsomes.

Data set [20] has as its target Cytochrome P450 2C9 (Homo sapiens, UniProt P11712). In words: Inhibition of CYP2C9 in human liver microsome incubated for 10 mins in the presence of NADPH by LC-MS/MS analysis. Format: ADME, microsomes.
Data set [21] deals with Cytochrome P450 2C19 (Homo sapiens, UniProt P33261). In words: Inhibition of CYP2C19 in human liver microsome incubated for 10 mins in the presence of NADPH by LC-MS/MS analysis. It counts as ADME, microsomes.
Data set [22] addresses Cytochrome P450 2D6 (Homo sapiens, UniProt P10635). In words: Inhibition of CYP2D6 in human liver microsome incubated for 10 mins in the presence of NADPH by LC-MS/MS analysis. It counts as ADME, microsomes.
The target of data set [23] is Cytochrome P450 3A4 (Homo sapiens, UniProt P08684). In words: Inhibition of CYP3A4 in human liver microsome incubated for 10 mins in the presence of NADPH by LC-MS/MS analysis. It counts as ADME, microsomes.
Data set [24] is described as follows: Initial plasma concentration in Sprague-Dawley rat at 2 mg/kg, iv by LC-MS/MS analysis. Format: ADME, organism-based.
Data set [25] in a line: Half life in Sprague-Dawley rat at 2 mg/kg, iv measured up to 24 hrs by LC-MS/MS analysis. Format: ADME, organism-based. The following applies: in vivo.
Data set [26] in a line: Volume of distribution at steady state in Sprague-Dawley rat at 2 mg/kg, iv measured after 24 hrs by LC-MS/MS analysis. The following applies: in vivo, read-out: Vdss. Format: ADME, organism-based.
Data set [27] can be described thus: Clearance in Sprague-Dawley rat at 2 mg/kg, iv measured after 24 hrs by LC-MS/MS analysis. Format: ADME, organism-based. Conditions: in vivo.
Data set [28] is described as follows: AUClast in Sprague-Dawley rat at 2 mg/kg, iv measured after 24 hrs by LC-MS/MS analysis. It counts as ADME, organism-based. Also noted: route intravenous, dose 2 mg/kg, time 24 hrs. Conditions: in vivo.
A short description of data set [29]: AUC (0-infinity) in Sprague-Dawley rat at 2 mg/kg, iv measured after 24 hrs by LC-MS/MS analysis. Format: ADME, organism-based. Also noted: route intravenous, dose 2 mg/kg, time 24 hrs. The following applies: in vivo.
Data set [30] in a line: Cmax in Sprague-Dawley rat at 10 mg/kg, po measured up to 24 hrs by LC-MS/MS analysis. Format: ADME, organism-based. More on the design: route oral, dose 10 mg/kg, time <=24. The following applies: in vivo.
The nature of data set [31]: Tmax in Sprague-Dawley rat at 10 mg/kg, po measured up to 24 hrs by LC-MS/MS analysis. It counts as ADME, organism-based. The following applies: in vivo.
Data set [32] can be described thus: AUClast in Sprague-Dawley rat at 10 mg/kg, po measured after 24 hrs by LC-MS/MS analysis. Format: ADME, organism-based. More on the design: route oral, time 24 hrs, dose 10 mg/kg. The following applies: in vivo.
Data set [33] in a line: Oral bioavailability in Sprague-Dawley rat at 10 mg/kg measured after 24 hrs by LC-MS/MS analysis. Format: ADME, organism-based. Conditions: in vivo.
In data set [34] the target is T1, Lanosterol 14-alpha demethylase. In words: Inhibition of Candida albicans CYP51 assessed as ergosterol level at 0.015 ug/ml measured after 18 hrs by GC-MS analysis relative to control. More on the design: scale not given: the % may be the effect or the level left. Conditions: at 0.015 µg/mL.
The target is the same in data set [35]. Briefly: Inhibition of Candida albicans CYP51 assessed as eburicol level at 0.015 ug/ml measured after 18 hrs by GC-MS analysis relative to control. More on the design: scale not given: the % may be the effect or the level left. The following applies: at 0.015 µg/mL.
Data set [36] has the same target. In words: Inhibition of Candida albicans CYP51 assessed as 14alpha-methylergosta-8,24(28)-dien3beta-6alpha-diol level at 0.015 ug/ml measured after 18 hrs by GC-MS analysis relative to control. Also noted: scale not given: the % may be the effect or the level left. The following applies: at 0.015 µg/mL.
The target is the same in data set [37]. In words: Inhibition of Candida albicans CYP51 assessed as unknown sterol level at 0.015 ug/ml measured after 18 hrs by GC-MS analysis relative to control. Also noted: scale not given: the % may be the effect or the level left. The following applies: at 0.015 µg/mL.

Structures are written as SMILES. pIC50: −log10 of the molar value. In brackets after ≈: the same amount, converted by molar mass.

T1 sequence (P10613 whole entry): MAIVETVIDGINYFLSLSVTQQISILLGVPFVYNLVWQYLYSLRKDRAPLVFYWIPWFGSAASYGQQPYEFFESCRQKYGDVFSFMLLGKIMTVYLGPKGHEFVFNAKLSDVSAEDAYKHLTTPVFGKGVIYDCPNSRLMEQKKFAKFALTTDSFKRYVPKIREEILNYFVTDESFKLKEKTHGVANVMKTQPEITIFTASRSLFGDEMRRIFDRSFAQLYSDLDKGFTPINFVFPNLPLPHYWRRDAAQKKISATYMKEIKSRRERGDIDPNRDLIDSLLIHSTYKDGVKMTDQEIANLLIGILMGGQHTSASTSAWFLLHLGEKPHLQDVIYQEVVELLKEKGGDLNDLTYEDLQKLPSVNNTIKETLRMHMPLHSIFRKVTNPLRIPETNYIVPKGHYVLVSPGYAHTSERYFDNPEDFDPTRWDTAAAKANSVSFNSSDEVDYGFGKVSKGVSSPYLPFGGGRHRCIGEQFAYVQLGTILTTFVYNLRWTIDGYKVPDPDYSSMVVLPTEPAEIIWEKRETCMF
Sequence of Cytochrome P450 2C9 (P11712 whole entry): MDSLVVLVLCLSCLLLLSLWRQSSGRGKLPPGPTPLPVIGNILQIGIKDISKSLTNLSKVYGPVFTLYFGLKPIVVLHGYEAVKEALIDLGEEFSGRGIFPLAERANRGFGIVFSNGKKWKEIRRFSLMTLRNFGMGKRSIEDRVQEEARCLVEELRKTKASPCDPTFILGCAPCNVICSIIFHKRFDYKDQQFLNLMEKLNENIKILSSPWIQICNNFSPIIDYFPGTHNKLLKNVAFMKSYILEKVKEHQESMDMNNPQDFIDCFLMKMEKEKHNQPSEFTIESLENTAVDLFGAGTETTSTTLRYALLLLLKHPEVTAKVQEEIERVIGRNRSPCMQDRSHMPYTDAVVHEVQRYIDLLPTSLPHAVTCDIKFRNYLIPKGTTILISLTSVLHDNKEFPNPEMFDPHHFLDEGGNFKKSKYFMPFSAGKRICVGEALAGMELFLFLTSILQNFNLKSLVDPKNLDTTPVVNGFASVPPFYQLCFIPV
Sequence of Cytochrome P450 2D6 (P10635 whole entry): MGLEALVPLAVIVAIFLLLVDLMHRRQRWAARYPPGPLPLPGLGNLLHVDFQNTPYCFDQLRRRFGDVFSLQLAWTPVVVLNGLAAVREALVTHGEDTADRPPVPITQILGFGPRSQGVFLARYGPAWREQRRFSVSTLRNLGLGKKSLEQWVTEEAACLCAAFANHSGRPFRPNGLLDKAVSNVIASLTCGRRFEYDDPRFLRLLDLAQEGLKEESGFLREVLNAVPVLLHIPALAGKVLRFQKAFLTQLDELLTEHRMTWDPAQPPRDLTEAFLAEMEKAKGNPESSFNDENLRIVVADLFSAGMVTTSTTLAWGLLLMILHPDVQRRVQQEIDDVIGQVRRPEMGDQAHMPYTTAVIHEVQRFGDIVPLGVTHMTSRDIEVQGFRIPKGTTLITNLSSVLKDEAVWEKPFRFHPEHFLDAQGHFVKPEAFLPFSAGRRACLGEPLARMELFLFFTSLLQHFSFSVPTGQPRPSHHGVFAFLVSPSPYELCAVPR
Sequence of Cytochrome P450 2C19 (P33261 whole entry): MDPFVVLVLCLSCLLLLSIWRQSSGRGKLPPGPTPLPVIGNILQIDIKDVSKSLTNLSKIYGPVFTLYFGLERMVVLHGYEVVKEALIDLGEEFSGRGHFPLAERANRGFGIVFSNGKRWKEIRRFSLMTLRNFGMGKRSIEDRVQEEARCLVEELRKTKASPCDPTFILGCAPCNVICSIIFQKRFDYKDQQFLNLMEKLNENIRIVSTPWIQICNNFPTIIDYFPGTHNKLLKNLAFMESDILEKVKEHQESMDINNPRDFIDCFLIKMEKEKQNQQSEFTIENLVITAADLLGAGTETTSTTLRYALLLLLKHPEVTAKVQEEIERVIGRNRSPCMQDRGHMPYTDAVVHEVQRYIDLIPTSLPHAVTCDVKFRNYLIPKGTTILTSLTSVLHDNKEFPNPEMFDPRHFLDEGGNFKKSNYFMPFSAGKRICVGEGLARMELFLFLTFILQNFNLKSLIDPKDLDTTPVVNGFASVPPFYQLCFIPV
Sequence of Cytochrome P450 3A4 (P08684 whole entry): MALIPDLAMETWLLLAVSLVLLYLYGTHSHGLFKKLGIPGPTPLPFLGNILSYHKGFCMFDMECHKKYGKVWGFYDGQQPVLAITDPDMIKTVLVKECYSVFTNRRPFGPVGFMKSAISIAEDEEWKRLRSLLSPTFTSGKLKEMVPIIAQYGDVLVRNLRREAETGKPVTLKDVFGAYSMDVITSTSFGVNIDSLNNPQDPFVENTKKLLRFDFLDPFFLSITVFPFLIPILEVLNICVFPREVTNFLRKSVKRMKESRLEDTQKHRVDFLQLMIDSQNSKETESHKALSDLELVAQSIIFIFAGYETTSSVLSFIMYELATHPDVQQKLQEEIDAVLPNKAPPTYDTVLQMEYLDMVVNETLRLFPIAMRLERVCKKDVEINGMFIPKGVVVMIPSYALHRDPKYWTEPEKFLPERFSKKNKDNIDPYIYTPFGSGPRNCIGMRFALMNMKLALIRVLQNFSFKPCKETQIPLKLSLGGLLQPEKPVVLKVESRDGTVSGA

One may read the MIC as the lowest concentration found to suppress growth. One may read the half-life as the time in which the quantity being followed falls by half. Take `CC[C@H](C)[C@@H](Cn1ccnc1)NC(=O)c1ccc(-c2ccccc2)cc1F`: the MIC is < 0.03 µg/mL in data set [1], < 0.03 µg/mL in data set [2], 1 µg/mL (≈ 2.74 µM) in data set [3] and 2 µg/mL (≈ 5.47 µM) in data set [4]. Moreover, in [5], the half-life at 100 µM was 0.06 h.
A word on the pIC50: it is the IC50 on a negative log10 scale, so that one unit is a factor of ten. Broadly, the clearance is a measure of how efficiently the substance is removed, as volume per time. The term AUC(0-t) denotes exposure summed from dosing to a finite time, without extrapolation to infinity. The AUC(0-inf) is total exposure, with the tail of the curve extrapolated. The term Cmax denotes the peak of the concentration-time curve. A word on the Tmax: it is the time from dosing to the highest level. As usually defined, the bioavailability is the share of a dose that reaches the circulation, judged against a reference dose that is usually intravenous. With `Fc1ccc(C2(Cn3cncn3)COC(c3ccc(-c4ccccc4F)cc3)=N2)cc1` (stereo unspecified), the Activity in data set [6] was 18.89%; in data set [34], 38.82%; in data set [35], 5.08%; in [36], 32.74%; in [37], 1.97%. Further, the MIC is 0.06 µg/mL (≈ 0.144 µM) in data set [7]; < 0.03 µg/mL in [1]; > 64 µg/mL in [4]; < 0.03 µg/mL in data set [8]; 0.25 µg/mL (≈ 0.6 µM) in data set [9]; 8 µg/mL (≈ 19.2 µM) in [10]. For the same molecule, the MIC is 0.25 µg/mL (≈ 0.6 µM) in data set [11] and > 64 µg/mL in data set [12]. Further, the results for the half-life at 100 µM in [5] and in data set [18] were > 2.42 h and > 4.8 h, respectively. The microsomal CLint at 100 µM in data set [13] is < 9.6 µL/min/mg. The figures for the remaining at 1 h, 100 µM in [14], in data set [15] and in data set [16] were 75.4%, 89.6% and 95.3%, respectively. In data set [17], the Stabilty is 120.4%. Besides, the pIC50 in [19] is 5.18; in [20] it was 5.64; in data set [21] it was 5.81; in data set [22] it was < 4.30; in data set [23] it was 4.83. Moreover, the C0 in [24] amounted to 758 ng/mL. Further, the half-life in data set [25] is 9.35 h. For the same molecule, the Vd in data set [26] amounted to 7.18 L/kg. The molecule further gave a clearance in [27] of 10.8 mL/min/kg. Moreover, the figures for the AUC(0-t) at 24 h in [28] and in [32] were 2690 ng·h/mL and 10400 ng·h/mL, respectively. For the same molecule, in [29], the AUC(0-inf) came to 3130 ng·h/mL. The concentration in data set [30] peaked (Cmax) at 754 ng/mL. Also, the Tmax in data set [31] came out at 5.33 h. In addition, in data set [33], the bioavailability stood at 77.7%.
Turning to `Fc1ccccc1-c1ccc(C2=NC(Cn3cncn3)(c3ccc(Cl)cc3)CO2)cc1` (stereo unspecified), the MIC is 0.06 µg/mL (≈ 0.139 µM) in data set [7]; < 0.03 µg/mL in [1]; > 64 µg/mL in data set [4]; < 0.03 µg/mL in data set [8]; 0.25 µg/mL (≈ 0.578 µM) in [9]; 4 µg/mL (≈ 9.24 µM) in [10]. Further, the MIC was 0.25 µg/mL (≈ 0.578 µM) in data set [11] and > 64 µg/mL in data set [12].
`Fc1cccc(-c2ccc(C3=NC(Cn4cncn4)(c4ccc(Cl)cc4)CO3)cc2)c1` (stereo unspecified): the MIC in [7] was 0.06 µg/mL (≈ 0.139 µM); in data set [1], < 0.03 µg/mL; in data set [4] it was > 64 µg/mL; in [8] it was < 0.03 µg/mL; in data set [9] it was 0.25 µg/mL (≈ 0.578 µM); in [10], 4 µg/mL (≈ 9.24 µM). The MIC in [11] was 0.25 µg/mL (≈ 0.578 µM); in data set [12], > 64 µg/mL.
